Source: US8329862B1, “Cell-killing peptide derived from the C-terminus of NOXA protein” (Chosun University, priority 2004, dated 2012)
No end group written: not given here.

Columns and labels:
Type in all cases: cell-based
[1] = system: HeLa cell, a cervical cancer cell line; assay: Cell-killing effect on HeLa cells, crystal violet staining of attached living cells; settings: for cell-killing activity: procedure of Example 2, crystal violet; for cell-killing activity compared with CKP peptide: procedure of Example 2, FIG. 6
Protocol: In order to examine the cell-killing effect of CKP peptide synthesized in Example 1, HeLa cell, a cervical cancer cell line was adopted and cultivated. The culture medium was replaced with experimental media containing CKP peptide solution in 0, 1, 5, 10, 15, 20, 30, 40 μM of concentration serially and cultivated for more 24 hours. In order to observe living cells attached on the surface, the resulting cells were stained for 10 minutes by using 100 μl of 0.5% crystal violet and then, washed out by using distilled water and running water to be de-stained, while discarding cells floating on the culture medium. Then, cells were observed by photography after placing culture vessel under a fluorescent lamp box as depicted in FIG. 3. At this moment, living cells attached on the surface appeared blue color since they were stained by crystal violet.

[2] = system: HeLa cell, a cervical cancer cell line; assay: as above; settings: pan-caspase inhibitor z-VAD-fmk in culture media, FIG. 11
[3] = system: HeLa cell, a cervical cancer cell line; assay: Relative survival ratio of HeLa cells, counted from time-lapse microscopy; settings: 1 hour
Protocol: In order to measure the strength of CKP peptide, several substances that are known to kill cells were adopted to compare the cell-killing effects. HeLa cell, a cervical cancer cell line was cultivated and treated with CKP peptide, TRAIL and Cisplatin to 30 μM, 100 ng/ml and 100 μg/ml respectively for 1 hour. After that, the resulting cells were observed under time-lapse video capture microscopy (Leica, Model: DMI RBE, Germany) in 20 seconds of time-interval for 1 hour by the procedure described in Example 5, photographed to 40×, counted for the numbers of living cells and dead cells and then, estimated the relative survival ratio in a graph. […] As a consequence, it is clarified that CKP peptide of the present invention had the strongest cell-killing effect about 9-fold more than TRAIL or Cisplatin.

HeLa cell lines = assay: Time-lapse video capture microscopy of HeLa cell death; settings: for morphology of dead HeLa cells: CKP at 23 minutes and 20 seconds, TRAIL at 5 hours and 30 minutes, FIG. 8
Protocol: In order to analyze the action mode of CKP peptide of the present invention, several substances that are known to kill cells were adopted to compare the cell-killing effects. Above all, CKP peptide (10 μM), TRAIL (100 ng/ml) and Cisplatin (100 μg/ml) were treated to HeLa cell lines and observed under time-lapse video capture microscopy (Leica, Model: DMIRBE, Germany) in some time-interval (for CKP peptide, 20 seconds; TRAIL, 40 seconds; Cisplatin, 3 minutes) for 1 hour and 40 minutes, 3 hours and 30 minutes, 8 hours and 48 hours respectively. Then, the results were photographed to 40× by using FW4000 software. FIG. 7 depicts HeLa cells serially at each time interval. As a result, it is observed that the cell death caused by TRAIL started at about 1 hour and 30 minutes after treatment and reached the maximum level at about 8 hours. To the contrary, HeLa cell started to die at about 10 minutes after treating CKP peptide and most of HeLa cells have died even at 23 minutes and 20 seconds.

## Bid(mt)BH3CKP: fusion protein combining CKP peptide with mutant BidBH3 deleting the active site of BH3 domain, SEQ ID NO: 13 (RRRRRRRRGNIARHLAQVADSMDRRQKLLNLISKLF; Fusion protein)
[1]
  cell-killing activity: had the cell-killing activity

## BidBH3CKP: fusion protein that combines CKP peptide with BidBH3 peptide, SEQ ID NO: 12 (RRRRRRRRGNIARHLAQVGDSMDRRQKLLNLISKLF; Fusion protein)
[1]; procedure of Example 2
  cell-killing activity relative to BidBH3 peptide: 2 fold
[2]
  difference of cell-killing activity with or without z-VAD-fmk: not significant difference

## CKP 2: SEQ ID NO: 5 (RRRRRRRRGRQKALNLISKLF), substituted in one residue (fusion protein)
[1]
  cell-killing activity compared with CKP peptide: decreased the cell-killing activity slightly

## CKP 3: SEQ ID NO: 6 (RRRRRRRRGRQKLAALISKLF), substituted in two residues (fusion protein)
[1]
  cell-killing activity compared with CKP peptide: decreased the cell-killing activity slightly

## CKP 4: SEQ ID NO: 7 (RRRRRRRRGRQKLLNLIAALF), substituted in two residues (fusion protein)
[1]
  cell-killing activity compared with CKP peptide: outstanding rather than CKP peptide

## CKP 5: SEQ ID NO: 8 (RRRRRRRRGRQKALNLIAALF), substituted in three residues (fusion protein)
[1]
  cell-killing activity compared with CKP peptide: decreased the cell-killing activity slightly

## CKP 6: SEQ ID NO: 9 (RRRRRRRRGRQKAANLISKLF), 2nd and 3rd leucines substituted to alanine (Fusion protein)
[1]
  cell-killing activity compared with CKP peptide: decreased the cell-killing activity remarkably

## CKP 7: SEQ ID NO: 10 (RRRRRRRRGRQKLLNAISKLF), 5th leucine substituted to alanine (Fusion protein)
[1]
  cell-killing activity compared with CKP peptide: decreased the cell-killing activity remarkably

## CKP 8: SEQ ID NO: 11 (RRRRRRRRGRQKLLNLISKAF), 9th leucine substituted to alanine (Fusion protein)
[1]
  cell-killing activity compared with CKP peptide: decreased the cell-killing activity remarkably

## PTD domain without CKP domain: only PTD domain without CKP domain, synthesized as in Example 1 (RRRRRRRRG; protein transduction domain) [reference compound]
[1]
  cell-killing activity: not detected at all

## RRRRRRRRGRQKLLNLISKLF [CKP peptide]
[1]; 0-40 μM, 24 hours, crystal violet, FIG. 3
  concentration from which cell-killing activity is seen: ≥ 10 µM
[1]
  cell-killing activity: became strong remarkably
[3]
  cell-killing effect relative to TRAIL or Cisplatin: about 9 fold
HeLa cell lines
  morphology of dead HeLa cells: several cell membranes like balloon
HeLa cell lines; CKP peptide 10 μM
  time at which HeLa cells started to die after treatment: about 10 minutes

B1: TRAIL (protein, UniProt P50591 1-281, looked up)
Tumor necrosis factor ligand …: MAMMEVQGGPSLGQTCVLIVIFTVLLQSLCVAVTYVYFTNELKQMQDKYSKSGIACFLKEDDSYWDPNDEESMNSPCWQVKWQLRQLVRKMILRTSEETISTVQEKQQNISPLVRERGPQRVAAHITGTRGRSNTLSSPNSKNEKALGRKINSWESSRSGHSFLSNLHLRNGELVIHEKGFYYIYSQTYFRFQEEIKENTKNDKQMVQYIYKYTSYPDPILLMKSARNSCWSKDAEYGLYSIYQGGIFELKENDRIFVSVTNEHLIDMDHEASFFGAFLVG
notes: substance known to kill cells, used as comparator
HeLa cell lines
  morphology of dead HeLa cells: not to have cell membrane like balloon
HeLa cell lines; TRAIL 100 ng/ml
  time at which cell death reached the maximum level: about 8 hours
